Literature values, collected in patent US6733793B2, “Oral composition with insulin-like activities and methods of use” (MetaProteomics, LLC, priority 2002, dated 2004).

Legend:
[1] = tested on: bovine papilloma virus DNA-tranfected C3H/10T1/2 cells; conditions: in vitro, bovine papilloma virus DNA-transfected C3H/10T1/2 cells
[2] = rats, inhaled

In the case of `O=S(=O)([O-])[O-].[O]=[V+2]` [Vanadyl sulfate], the “Chromosomal damage and mitotic recombination” value (fruit fly) is listed as “induce chromosomal damage and mitotic recombination”, the Tumor promotion activity [1] is listed as “possess tumor promotion activity” and the Pulmonary inflammation [2] is listed as “induce pulmonary inflammation”.
